Test results reported in patent publication US11884708B2, “Stapled peptide inhibitors of nemo as potential anti-inflammatory and anti-cancer drugs” (INSTITUT PASTEUR, priority 2015, dated 2024).
Where a SMILES comes first, the peptide text is derived from it. Bridges are numbered along the chain shown (N, C = ends). [ ]: non-standard residue; d: D form. The star is where a group is joined. Succinimide(1-Et,3-yl) = CCN1C(=O)CC(*)C1=O; R8 = C=CCCCCCC[C@@](C)(N)C(=O)O; S5 = C=CCCC[C@](C)(N)C(=O)O; code Z = not defined here; Cbz = O=C(OCc1ccccc1)*; Aib = CC(C)(N)C(=O)O; CH2F = FC*

Legend:
circular dichroism = conditions: 10 mM sodium phosphate; pH 7; 1 °C; 50 uM
70Z3-C3 cells = test: Cellular uptake of BODIPY-labeled peptides by FACS; assay type: cell-based; conditions: 2 h incubation, flow cytometry
[1] = test system: HLY1 (ABC-DLBCL, MALT1 independent); test: Cell death assay (CellTiter-Blue resazurin); assay type: cell-based, human; conditions: for cell death: HLY1, 7 h; for EC50: Homo sapiens
Experimental: (§1) The CellTiter-Blue® Cell Viability kit assay purchased from Promega was used to assess the cell death induced by NEMO stapled peptides in ABC- and GCB-DLBCL cell lines. […] Cells were considered 100% death when the fluorescence intensity value was the same as the one with the medium alone or with the cells treated with the cycloheximide protein synthesis inhibitor at 25 μM (Sigma Aldrich).
(§2) For each time point measurement 100 μl of cell samples were withdrawn at different incubation times (7 h, 24 h and 48 h) and subjected to resazurin assay for one hour at 37° C. in the CO2 incubator by adding and mixing for 10 sec 20 μl of resazurin. Fluorescence measurements were performed with a TECAN infinite F500 instrument at 560 nm excitation wavelength and 590 nm emission wavelength. Viability of cells at time 0 was determined just before adding compound and all experiments were performed in duplicate.
(§3) The percentage of cell death was calculated according to the following formula: (1−((RFUobs−blank)/(RFU100% viability−blank))*100), where RFUobs corresponds to the cells viability observed in the presence of compound, RFU100% viability, the initial cells viability and blank the background fluorescence measured using the medium alone.
(§4) The EC50 value was calculated by plotting the percentage of cell death as function of the compound concentration and fitting the experimental curve with the following formula: (A*P0)/(EC50+P0), where A is the amplitude of fluorescence, P0 is the peptide concentration.
(§5) To compare the inhibition efficiency of BA-UBI-SAHND306-Q313 with IKK inhibitors (MLN120B, MedChem Express) or IKKα/β inhibitor (TPCA1, R&D systems), 25,000 DLBCL cells (OCI-Ly3) were incubated for 7 h with an increasing concentration of IKK inhibitors ranging from 0 to 50 μM, and the amount of cell death was then determined using CellTiter-Blue® Cell Viability kit assay. For the MI-2 MALT1 inhibitor (Fontan et al., 2012, Cancer cell 22, 812-824), similar experiments were carried out in MALT dependent (OCI-Ly3) and independent (HLY1) DLBCL cells using a 0-25 μM range.

[2] = test system: OCI-Ly3 (ABC-DLBCL, MALT1 dependent); test: Cell death assay (CellTiter-Blue resazurin); assay type: cell-based, human
Experimental: as §1, §2, §3, §4, §5

OCI-Ly7 (GCB-DLBCL) = test: Cell death assay (CellTiter-Blue resazurin); assay type: cell-based, human; conditions: OCY-Ly7, no constitutive NF-κB activation
Experimental: as §1, §2
as §3, with “alone. […]” for “alone.”

OCI-Ly3 DLBCL cells = test: Protection from cell death induced by NEMO stapled inhibitor by apoptosis and necroptosis inhibitors; assay type: cell-based, human; conditions: OCY-Ly3 pre-treated with inhibitor, then A-UBI-SAHND306-Q313
Experimental: Ferrostatin-1, an inhibitor of ferroptosis (Sigma Aldrich) was used at 25 μM, the mixture of pepstatin-A and E64D (Sigma Aldrich), inhibitors of lysosomal cathepin D and cathepsin B, respectively, at 25 μM each and Cyclosporin A (Sigma Aldrich), a CypD inhibitor, at 25 μM. In all experiments, the effect of different DMSO concentration on cell viability was measured and taken into account, and fluorescence background was measured using cell free medium containing inhibitors.

CC[C@H](C)[C@@H]1NC(=O)[C@@](C)(NC(=O)[C@H](C)NC(=O)[C@H](CCC(N)=O)NC(=O)[C@H](C)NC(=O)[C@H](CCCCN)NC(=O)[C@H](CC(C)C)NC(=O)[C@H](CSC2CC(=O)N(CC)C2=O)NC(C)=O)CCCC=CCCC[C@@](C)(C(=O)N[C@@H](CCCNC(=N)N)C(=O)N[C@@H](Cc2ccccc2)C(=O)N[C@@H](CCC(N)=O)C(=O)N[C@@H](C)C(=O)N[C@@H](CCC(=O)O)C(=O)N[C@@H](CCCNC(=N)N)C(=O)N[C@@H](Cc2c[nH]cn2)C(=O)N[C@@H](C)C(=O)N[C@@H](CCCNC(=N)N)C(=O)N[C@@H](CCC(=O)O)C(=O)N[C@@H](CCCCN)C(N)=O)NC(=O)[C@H](CCCCN)NC(=O)[C@H](Cc2ccc(O)cc2)NC1=O (stereo partly shown) (Ac-C(Succinimide(1-Et,3-yl))LKAQA[S5]IYK[S5]RFQAERHAREK-NH2; staple 7-11)
helicity (circular dichroism): 65 rel %

CC[C@H](C)[C@H](NC(=O)[C@H](CC(=O)O)NC(=O)C(C)(C)NC(=O)[C@H](CCC(N)=O)NC(=O)C(C)(C)NC(=O)[C@H](CCCCN)NC(=O)[C@H](CC(C)C)NC(=O)[C@H](CSC1CC(=O)N(CC)C1=O)NC(C)=O)C(=O)N[C@@H](Cc1ccc(O)cc1)C(=O)N[C@@H](CCCCN)C(=O)NC(C)(C)C(=O)N[C@@H](CCCNC(=N)N)C(=O)N[C@@H](Cc1ccccc1)C(=O)N[C@@H](CCC(N)=O)C(=O)NC(C)(C)C(=O)N[C@@H](CCC(=O)O)C(=O)N[C@@H](CCCNC(=N)N)C(=O)N[C@@H](Cc1c[nH]cn1)C(=O)NC(C)(C)C(=O)N[C@@H](CCCNC(=N)N)C(=O)N[C@@H](CCC(=O)O)C(=O)N[C@@H](CCCCN)C(N)=O (stereo partly shown) (Ac-C(Succinimide(1-Et,3-yl))LK[Aib]Q[Aib]DIYK[Aib]RFQ[Aib]ERH[Aib]REK-NH2)
helicity (circular dichroism): 49 rel %

CC[C@H](C)[C@@H]1NC(=O)[C@H](CC(=O)O)NC(=O)[C@H](C)NC(=O)[C@H](CCC(N)=O)NC(=O)[C@](C)(NC(=O)[C@H](CCCCN)NC(=O)[C@H](CC(C)C)NC(=O)[C@H](CSC2CC(=O)N(CC)C2=O)NC(C)=O)CCCCCC/C=C/CCC[C@@](C)(C(=O)N[C@@H](CCCNC(=N)N)C(=O)N[C@@H](Cc2ccccc2)C(=O)N[C@@H](CCC(N)=O)C(=O)N[C@@H](C)C(=O)N[C@@H](CCC(=O)O)C(=O)N[C@@H](CCCNC(=N)N)C(=O)N[C@@H](Cc2c[nH]cn2)C(=O)N[C@@H](C)C(=O)N[C@@H](CCCNC(=N)N)C(=O)N[C@@H](CCC(=O)O)C(=O)N[C@@H](CCCCN)C(N)=O)NC(=O)[C@H](CCCCN)NC(=O)[C@H](Cc2ccc(O)cc2)NC1=O (stereo partly shown) (Ac-C(Succinimide(1-Et,3-yl))LK[R8]QADIYK[S5]RFQAERHAREK-NH2; staple (E) 4-11)
helicity (circular dichroism): 80 rel %

CC[C@H](C)[C@@H]1NC(=O)[C@H](CC(=O)O)NC(=O)[C@H](C)NC(=O)[C@H](CCC(N)=O)NC(=O)[C@](C)(NC(=O)[C@H](CCCCN)NC(=O)[C@H](CC(C)C)NC(=O)[C@H](CSC2CC(=O)N(CC)C2=O)NC(C)=O)CCCCCC/C=C\CCC[C@@](C)(C(=O)N[C@@H](CCCNC(=N)N)C(=O)N[C@@H](Cc2ccccc2)C(=O)N[C@@H](CCC(N)=O)C(=O)N[C@@H](C)C(=O)N[C@@H](CCC(=O)O)C(=O)N[C@@H](CCCNC(=N)N)C(=O)N[C@@H](Cc2c[nH]cn2)C(=O)N[C@@H](C)C(=O)N[C@@H](CCCNC(=N)N)C(=O)N[C@@H](CCC(=O)O)C(=O)N[C@@H](CCCCN)C(N)=O)NC(=O)[C@H](CCCCN)NC(=O)[C@H](Cc2ccc(O)cc2)NC1=O (stereo partly shown) (Ac-C(Succinimide(1-Et,3-yl))LK[R8]QADIYK[S5]RFQAERHAREK-NH2; staple (Z) 4-11)
helicity (circular dichroism): 63 rel %

CCN1C(=O)CC(SC[C@H](NC(C)=O)C(=O)N[C@@H](CC(C)C)C(=O)N[C@@H](CCCCN)C(=O)N[C@@]2(C)CCCC=CCCC[C@@](C)(C(=O)N[C@@H](Cc3ccc(O)cc3)C(=O)N[C@@H](CCCCN)C(=O)N[C@@H](C)C(=O)N[C@@H](CCCNC(=N)N)C(=O)N[C@@H](Cc3ccccc3)C(=O)N[C@@H](CCC(N)=O)C(=O)N[C@@H](C)C(=O)N[C@@H](CCC(=O)O)C(=O)N[C@@H](CCCNC(=N)N)C(=O)N[C@@H](Cc3c[nH]cn3)C(=O)N[C@@H](C)C(=O)N[C@@H](CCCNC(=N)N)C(=O)N[C@@H](CCC(=O)O)C(=O)N[C@@H](CCCCN)C(N)=O)NC(=O)[C@H](CC(=O)O)NC(=O)[C@H](C)NC(=O)[C@H](CCC(N)=O)NC2=O)C1=O (stereo partly shown) (Ac-C(Succinimide(1-Et,3-yl))LK[S5]QAD[S5]YKARFQAERHAREK-NH2; staple 4-8)
helicity (circular dichroism): 70 rel %

CC[C@H](C)[C@H](NC(=O)[C@H](CCCCN)NC(=O)[C@@H](NC(=O)[C@H](CCC(N)=O)NC(=O)[C@H](CCCNC(=N)N)NC(=O)[C@H](CSC1CC(=O)N(CC)C1=O)NC(C)=O)[C@@H](C)CC)C(=O)N[C@@H](Cc1c[nH]c2ccccc12)C(=O)N[C@@H](Cc1ccccc1)C(=O)N[C@@H](CCC(N)=O)C(=O)N[C@@H](CC(N)=O)C(=O)N[C@@H](CCCNC(=N)N)C(=O)N[C@@H](CCCNC(=N)N)C(=O)N[C@@H](CCSC)C(=O)N[C@@H](CCCCN)C(=O)N[C@@H](Cc1c[nH]c2ccccc12)C(=O)N[C@@H](CCCCN)C(=O)N[C@@H](CCCCN)C(=O)N[C@@H](CC(C)C)C(=O)N[C@@H](CCCCN)C(=O)N[C@@H](C)C(=O)N[C@@H](CCC(N)=O)C(=O)N[C@@H](C)C(=O)N[C@]1(C)CCCCCCC=CCCC[C@@](C)(C(=O)N[C@@H](C)C(=O)N[C@@H](CCC(=O)O)C(=O)N[C@@H](CCCNC(=N)N)C(=O)N[C@@H](Cc2c[nH]cn2)C(=O)N[C@@H](C)C(=O)N[C@@H](CCCNC(=N)N)C(=O)N[C@@H](CCC(=O)O)C(=O)N[C@@H](CCCCN)C(N)=O)NC(=O)[C@H](Cc2ccccc2)NC(=O)[C@H](CCCNC(=N)N)NC(=O)[C@H](C)NC(=O)[C@H](CCCCN)NC(=O)[C@H](Cc2ccc(O)cc2)NC(=O)[C@H]([C@@H](C)CC)NC1=O (stereo partly shown) [A-UBI-SAHN D306-Q313] (Ac-C(Succinimide(1-Et,3-yl))RQIKIWFQNRRMKWKKLKAQA[R8]IYKARF[S5]AERHAREK-NH2; staple 23-30)
intracellular delivery at 4° C. lower than at 37° C. (70Z3-C3 cells): 58% | more potent than ML120B ([1]; HLY1): 70 × | cell death [1]: 100% | times more potent than ML120B IKKβ inhibitor ([2]; OCI-Ly3): about 50 times | EC50 ([2]; OCI-Ly3, 7 h): 2600 ± 500 nM | cell death ([2]; OCI-Ly3, 7 h): 100% | cell death, in words (OCI-Ly7 (GCB-DLBCL)): no cell death

CC(C)S(=O)(=O)c1ccc2nccc(Nc3ccc4scnc4c3)c2c1 [GSK872]
protection to cell death induced by NEMO stapled inhibitor, in words (OCI-Ly3 DLBCL cells): significantly rescued

COCCOc1nc(-c2ccc(Cl)c(Cl)c2)n(-c2ccc(NC(=O)CCl)cc2)n1 [MI-2]
cell death [1]: more resistant | EC50 ([2]; OCI-Ly3, 7 h): 2500 ± 50 nM

COc1c(Cl)cc2c([nH]c3cnccc32)c1NC(=O)c1cccnc1C [MLN120B]
cell death [1]: No cell death | EC50 ([1]; HLY1, 24 h): 70 ± 2 µM | EC50 ([1]; HLY1, 48 h): 78 ± 2 µM | EC50 ([2]; Homo sapiens, OCI-Ly3, 48 h): 125000 ± 10000 nM | cell death ([2]; OCI-Ly3, 48 h): 52%

COc1nccnc1NS(=O)(=O)c1ccc(NC(=O)/C=C/c2ccc([N+](=O)[O-])s2)cc1 [NSA, necrosulfonamide]
protection to cell death induced by NEMO stapled inhibitor, in words (OCI-Ly3 DLBCL cells): significantly rescued

CN1C(=O)C(Cc2c[nH]c3ccccc23)NC1=S (stereo not shown) [Nec1, necrostatin-1]
protection to cell death induced by NEMO stapled inhibitor, in words (OCI-Ly3 DLBCL cells): totally prevent

COC(=O)C[C@H](NC(=O)[C@H](C)NC(=O)[C@@H](NC(=O)OCc1ccccc1)C(C)C)C(=O)CF [Z-VAD-fmk] (Cbz-Val-Ala-Asp(OMe)-CH2F)
protection to cell death induced by NEMO stapled inhibitor, in words (OCI-Ly3 DLBCL cells): did not provide any protection

Z-Val-Arg-Pro-Arg-fluoromethylketone ({code Z}-VRPR-CH2F; reading uncertain; also: printed as Z-Val-Arg-Pro-Arg-fluoromethylketone) [Z-VRPR-fmk]
cell death, in words ([1]; HLY1, for at least 48 h): did not induce any cell death | cell death ([2]; OCI-Ly3, 48 h): very little cell death
